Where two headings read alike, the source gives them in different places.
Target: human Nav1.8 (Homo sapiens, UniProt Q9Y5Y9)
Assay: SyncroPatch384PE assay (automated patch clamp)
Assay type: cell-based
Details: human Nav1.8/b3 CHO cells
[1] = inactivated state block (P2 measurement), read-out: P2 IC50
[2] = resting state block (P1 measurement), read-out: P1 IC50

Chain of human Nav1.8 (Q9Y5Y9 whole entry): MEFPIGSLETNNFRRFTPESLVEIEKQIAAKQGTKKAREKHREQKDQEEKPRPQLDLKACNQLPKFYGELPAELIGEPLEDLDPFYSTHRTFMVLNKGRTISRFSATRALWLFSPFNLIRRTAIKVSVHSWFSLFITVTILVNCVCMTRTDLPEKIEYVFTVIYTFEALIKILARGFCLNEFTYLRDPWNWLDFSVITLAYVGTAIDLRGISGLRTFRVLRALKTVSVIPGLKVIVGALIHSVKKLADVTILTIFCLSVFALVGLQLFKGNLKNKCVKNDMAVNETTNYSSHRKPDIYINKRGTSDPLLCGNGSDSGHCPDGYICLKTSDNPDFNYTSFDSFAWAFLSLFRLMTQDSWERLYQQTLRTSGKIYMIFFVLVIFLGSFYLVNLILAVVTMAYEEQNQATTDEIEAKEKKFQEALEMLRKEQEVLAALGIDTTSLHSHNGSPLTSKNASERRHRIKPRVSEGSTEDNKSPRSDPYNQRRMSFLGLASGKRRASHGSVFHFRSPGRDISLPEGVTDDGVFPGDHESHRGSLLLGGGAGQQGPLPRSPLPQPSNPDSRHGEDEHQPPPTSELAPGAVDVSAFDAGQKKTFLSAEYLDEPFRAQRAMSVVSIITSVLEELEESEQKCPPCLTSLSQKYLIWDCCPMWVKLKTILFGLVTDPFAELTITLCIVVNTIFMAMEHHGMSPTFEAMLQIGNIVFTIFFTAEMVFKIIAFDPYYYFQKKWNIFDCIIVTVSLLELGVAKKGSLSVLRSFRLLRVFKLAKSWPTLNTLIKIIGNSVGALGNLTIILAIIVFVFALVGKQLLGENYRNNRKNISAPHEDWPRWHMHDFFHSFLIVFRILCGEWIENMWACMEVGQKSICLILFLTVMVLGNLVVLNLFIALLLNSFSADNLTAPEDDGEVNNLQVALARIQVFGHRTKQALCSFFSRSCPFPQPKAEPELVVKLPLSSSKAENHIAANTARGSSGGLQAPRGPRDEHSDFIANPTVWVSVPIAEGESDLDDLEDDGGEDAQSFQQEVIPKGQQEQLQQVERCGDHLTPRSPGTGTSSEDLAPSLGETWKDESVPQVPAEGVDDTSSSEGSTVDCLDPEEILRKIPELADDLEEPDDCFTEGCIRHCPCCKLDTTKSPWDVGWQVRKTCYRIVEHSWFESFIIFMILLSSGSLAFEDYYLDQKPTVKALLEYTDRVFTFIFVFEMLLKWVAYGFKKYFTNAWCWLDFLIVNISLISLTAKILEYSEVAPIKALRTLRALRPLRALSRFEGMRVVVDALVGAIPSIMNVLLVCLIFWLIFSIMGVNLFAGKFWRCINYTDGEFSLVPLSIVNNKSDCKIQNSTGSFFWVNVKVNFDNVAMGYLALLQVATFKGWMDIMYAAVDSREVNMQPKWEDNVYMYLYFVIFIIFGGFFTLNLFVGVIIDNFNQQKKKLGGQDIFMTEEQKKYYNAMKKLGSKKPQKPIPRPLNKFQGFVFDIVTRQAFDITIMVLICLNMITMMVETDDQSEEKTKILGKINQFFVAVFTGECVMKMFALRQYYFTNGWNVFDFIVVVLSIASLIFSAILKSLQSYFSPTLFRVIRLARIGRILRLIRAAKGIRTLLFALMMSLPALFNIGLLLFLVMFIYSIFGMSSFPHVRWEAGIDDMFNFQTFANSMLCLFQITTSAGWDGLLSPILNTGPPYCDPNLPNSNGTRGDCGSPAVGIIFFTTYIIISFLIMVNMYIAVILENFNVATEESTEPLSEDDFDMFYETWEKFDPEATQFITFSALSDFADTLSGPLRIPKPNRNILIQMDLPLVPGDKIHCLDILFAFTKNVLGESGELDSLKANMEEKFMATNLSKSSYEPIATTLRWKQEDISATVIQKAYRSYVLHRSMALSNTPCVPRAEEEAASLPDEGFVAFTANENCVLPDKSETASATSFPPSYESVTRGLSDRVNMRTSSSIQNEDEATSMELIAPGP

| Structure (SMILES) | IC50 [1] | IC50 [2] |
| --- | --- | --- |
| Cc1ccc(-c2cnc(N3CCCC(F)(F)CC3)c(C(=O)Nc3cccc(S(C)(=N)=O)c3)c2C)cc1 (stereo not drawn) [Example 96, 2-(4,4-difluoroazepan-1-yl)-4-methyl-N-(3-(S-methylsulfonimidoyl)phenyl)-5-(p-tolyl)nicotinamide] | ≤ 5 nM | ≤ 5 nM |
| Cc1c(C#N)cnc(N2CCCC(F)(F)CC2)c1C(=O)Nc1cccc(S(C)(=N)=O)c1 (stereo not drawn) [Example 97, 5-cyano-2-(4,4-difluoroazepan-1-yl)-4-methyl-N-(3-(S-methylsulfonimidoyl)phenyl)nicotinamide] | 5 to 50 nM | 5 to 50 nM |
| Cc1c(-c2nccs2)cnc(N2CCCC(F)(F)CC2)c1C(=O)Nc1cccc(S(C)(=N)=O)c1 (stereo not drawn) [Example 98, 2-(4,4-difluoroazepan-1-yl)-4-methyl-N-(3-(S-methylsulfonimidoyl)phenyl)-5-(thiazol-2-yl)nicotinamide] | 5 to 50 nM | 5 to 50 nM |
| Cc1c(-c2ccccn2)cnc(N2CCCC(F)(F)CC2)c1C(=O)Nc1cccc(S(C)(=N)=O)c1 (stereo not drawn) [Example 99, 6 C(4,4-difluoroazepan-1-yl)-4methyl-N-(3-(S-methylsulfonimidoyl)phenyl)-[2,3bipyridine]-5carboxamide] | 100 to 200 nM | 100 to 200 nM |
| Cc1c(C(F)(F)F)nnc(N2CC3(COC3)C2)c1C(=O)Nc1cccc(S(C)(=N)=O)c1 (stereo not drawn) [Example 100, 5-methyl-N-(3-(S-methylsulfonimidoyl)phenyl)-3-(2-oxa-6-azaspiro[3.3]heptan-6-yl)-6-(trifluoromethyl)pyridazine-4-carboxamide] | > 200 nM | > 200 nM |
| Cc1c(C(F)(F)F)nnc(N2CCCC(F)(F)CC2)c1C(=O)Nc1ccnc(S(C)(=N)=O)c1 (stereo not drawn) [Example 102, 3-(4,4-difluoroazepan-1-yl)-5-methyl-N-(2-(S-methylsulfonimidoyl)pyridin-4-yl)-6-(trifluoromethyl)pyridazine-4-carboxamide] | 5 to 50 nM | 5 to 50 nM |
| Cc1c(-c2ccccc2)cnc(N2CCCC(F)(F)CC2)c1C(=O)Nc1cccc([S@@](C)(=N)=O)c1 [Example 103, (S)-2-(4,4-difluoroazepan-1-yl)-4-methyl-N-(3-(S-methylsulfonimidoyl)phenyl)-5-phenylnicotinamide] | ≤ 5 nM | ≤ 5 nM |
| Cc1c(-c2c(F)cccc2F)cnc(N2CCCC(F)(F)CC2)c1C(=O)Nc1cccc(S(C)(=N)=O)c1 (stereo not drawn) [Example 104, 2-(4,4-difluoroazepan-1-yl)-5-(2,6-difluorophenyl)-4-methyl-N-(3-(S-methylsulfonimidoyl)phenyl)nicotinamide] | 5 to 50 nM | 5 to 50 nM |
| Cc1ccnc(N2CCCC(F)(F)CC2)c1C(=O)Nc1cccc(S(C)(=N)=O)c1 (stereo not drawn) [Example 105, 2-(4,4-difluoroazepan-1-yl)-4-methyl-N-(3-(S-methylsulfonimidoyl)phenyl)nicotinamide] | 50 to 100 nM | 50 to 100 nM |
| Cc1nc(N2CCCC(F)(F)CC2)c(C(=O)Nc2cccc(S(C)(=N)=O)c2)c(C)c1Cl (stereo not drawn) [Example 106, 5-chloro-2-(4,4-difluoroazepan-1-yl)-4,6-dimethyl-N-(3-(S-methylsulfonimidoyl)phenyl)nicotinamide] | ≤ 5 nM | ≤ 5 nM |
| CNS(=N)(=O)c1cc(NC(=O)c2cc(C(F)(F)F)c(C)nc2N2CCCC(F)(F)CC2)ccn1 (stereo not drawn) [Example 107, 2-(4,4-difluoroazepan-1-yl)-6-methyl-N-(2-(N-methylsulfamidimidoyl)pyridine-4-yl)-5-(trifluoromethyl)nicotinamide] | ≤ 5 nM | ≤ 5 nM |
| Cc1c(Cl)c(C(F)(F)F)nc(N2CCCC(F)(F)CC2)c1C(=O)Nc1cccc([S@@](C)(=N)=O)c1 [Example 108, (S)-5-chloro-2-(4,4-difluoroazepan-1-yl)-4-methyl-N-(3-(S-methylsulfonimidoyl)phenyl)-6-(trifluoromethyl)nicotinamide] | ≤ 5 nM | ≤ 5 nM |
| Cc1c(Cl)c(C(F)(F)F)nc(N2CCCC(F)(F)CC2)c1C(=O)Nc1cccc([S@](C)(=N)=O)c1 [Example 109, (R)-5-chloro-2-(4,4-difluoroazepan-1-yl)-4-methyl-N-(3-(S-methylsulfonimidoyl)phenyl)-6-(trifluoromethyl)nicotinamide] | ≤ 5 nM | ≤ 5 nM |
| Cc1c(-c2cccc(F)c2)cnc(N2CCCC(F)(F)CC2)c1C(=O)Nc1cccc([S@](C)(=N)=O)c1 [Example 110, (R)-2-(4,4-difluoroazepan-1-yl)-5-(3-fluorophenyl)-4-methyl-N-(3-(S-methylsulfonimidoyl)phenyl)nicotinamide] | ≤ 5 nM | ≤ 5 nM |
| Cc1c(-c2cccc(F)c2)cnc(N2CCCC(F)(F)CC2)c1C(=O)Nc1cccc([S@@](C)(=N)=O)c1 [Example 111, (S)-2-(4,4-difluoroazepan-1-yl)-5-(3-fluorophenyl)-4-methyl-N-(3-(S-methylsulfonimidoyl)phenyl)nicotinamide] | ≤ 5 nM | ≤ 5 nM |
| Cc1c(-c2ccc(F)cn2)cnc(N2CCCC(F)(F)CC2)c1C(=O)Nc1cccc(S(C)(=N)=O)c1 (stereo not drawn) [Example 112, 6(4,4-difluoroazepan-1-yl)-5-fluoro-4methyl-N-(3-(S-methylsulfonimidoyl)phenyl)-[2,3bipyridine]-5carboxamide] | 50 to 100 nM | 50 to 100 nM |
| Cc1ccsc1-c1cnc(N2CCCC(F)(F)CC2)c(C(=O)Nc2cccc(S(C)(=N)=O)c2)c1C (stereo not drawn) [Example 113, 2-(4,4-difluoroazepan-1-yl)-4-methyl-N-(3-(S-methylsulfonimidoyl)phenyl)-5-(3-methylthiophen-2-yl)nicotinamide] | ≤ 5 nM | ≤ 5 nM |
| Cc1nc(N2CCCC(F)(F)CC2)c(C(=O)Nc2ccnc(S(=N)(N)=O)c2)cc1C(F)(F)F (stereo not drawn) [Example 114, 2-(4,4-difluoroazepan-1-yl)-6-methyl-N-(2-sulfamidimidoylpyridin-4-yl)-5-(trifluoromethyl)nicotinamide] | ≤ 5 nM | ≤ 5 nM |
| Cc1c(C(F)(F)F)nnc(N2CCCC(F)(F)CC2)c1C(=O)Nc1cccc(S(=N)(N)=O)c1 (stereo not drawn) [Example 115, 3-(4,4-difluoroazepan-1-yl)-5-methyl-N-(3-sulfamidimidoylphenyl)-6-(trifluoromethyl)pyridazine-4-carboxamide] | ≤ 5 nM | ≤ 5 nM |
| Cc1c(N2CC3(COC3)C2)cnc(N2CCCC(F)(F)CC2)c1C(=O)Nc1cccc([S@](C)(=N)=O)c1 [Example 116, (R)-2-(4,4-difluoroazepan-1-yl)-4-methyl-N-(3-(S-methylsulfonimidoyl)phenyl)-5-(2-oxa-6-azaspiro[3.3]heptan-6-yl)nicotinamide] | > 200 nM | > 200 nM |
| Cc1c(-c2ccccc2)nnc(N2CCCC(F)(F)CC2)c1C(=O)Nc1cccc([S@@](C)(=N)=O)c1 [Example 117, (S)-3-(4,4-difluoroazepan-1-yl)-5-methyl-N-(3-(S-methylsulfonimidoyl)phenyl)-6-phenylpyridazine-4-carboxamide] | 50 to 100 nM | 100 to 200 nM |
| Cc1c(-c2ccccc2)nnc(N2CCCC(F)(F)CC2)c1C(=O)Nc1cccc([S@](C)(=N)=O)c1 [Example 118, (R)-3-(4,4-difluoroazepan-1-yl)-5-methyl-N-(3-(S-methylsulfonimidoyl)phenyl)-6-phenylpyridazine-4-carboxamide] | 50 to 100 nM | 50 to 100 nM |
| Cc1c(C(F)(F)F)nnc(N2CCCC(F)(F)CC2)c1C(=O)Nc1ccnc(S(=N)(N)=O)c1 (stereo not drawn) [Example 119, 3-(4,4-difluoroazepan-1-yl)-5-methyl-N-(2-sulfamidimidoylpyridin-4-yl)-6-(trifluoromethyl)pyridazine-4-carboxamide] | 5 to 50 nM | 5 to 50 nM |
| Cc1c(C(F)(F)F)nnc(N2CCCC(F)(F)CC2)c1C(=O)Nc1cccc(S(C)(=N)=N)c1 [Example 120, 3-(4,4-difluoroazepan-1-yl)-N-{3-[diimino(methyl)-λ^6-sulfanyl]phenyl}-5-methyl-6-(trifluoromethyl)pyridazine-4-carboxamide] | 50 to 100 nM | 100 to 200 nM |
| Cc1nc(N2CCCC(F)(F)CC2)c(C(=O)Nc2cccc(S(=N)(N)=O)c2)cc1C(F)(F)F (stereo not drawn) [Example 121, 2-(4,4-difluoroazepan-1-yl)-6-methyl-N-(3-sulfamidimidoylphenyl)-5-(trifluoromethyl)nicotinamide] | ≤ 5 nM | ≤ 5 nM |
| Cc1c(-c2ccccc2)cnc(N2CCCC(F)(F)CC2)c1C(=O)Nc1cccc([S@](C)(=N)=O)c1 [Example 122, (R)-2-(4,4-difluoroazepan-1-yl)-4-methyl-N-(3-(S-methylsulfonimidoyl)phenyl)-5-phenylnicotinamide] | ≤ 5 nM | ≤ 5 nM |
| Cc1c(C#CCO)cnc(N2CCCC(F)(F)CC2)c1C(=O)Nc1cccc([S@](C)(=N)=O)c1 [Example 123, (R)-2-(4,4-difluoroazepan-1-yl)-5-(3-hydroxyprop-1-yn-1-yl)-4-methyl-N-(3-(S-methylsulfonimidoyl)phenyl)nicotinamide] | > 200 nM | > 200 nM |
| Cc1c(C#CCN(C)C)cnc(N2CCCC(F)(F)CC2)c1C(=O)Nc1cccc([S@](C)(=N)=O)c1 [Example 124, (R)-2-(4,4-difluoroazepan-1-yl)-5-(3-(dimethylamino)prop-1-yn-1-yl)-4-methyl-N-(3-(S-methylsulfonimidoyl)phenyl)nicotinamide] | 100 to 200 nM | 100 to 200 nM |
| Cc1c(C#N)cnc(N2CCCC(F)(F)CC2)c1C(=O)Nc1cccc([S@](C)(=N)=O)c1 [Example 125, (R)-5-cyano-2-(4,4-difluoroazepan-1-yl)-4-methyl-N-(3-(S-methylsulfonimidoyl)phenyl)nicotinamide] | 5 to 50 nM | 5 to 50 nM |
| CNCC(=O)N=[S@](C)(=O)c1cccc(NC(=O)c2c(N3CCCC(F)(F)CC3)ncc(C#N)c2C)c1 [Example 126, (R)-5-cyano-2-(4,4-difluoroazepan-1-yl)-4-methyl-N-(3-(S-methyl-N-(methylglycyl)sulfonimidoyl)phenyl)nicotinamide] | ≤ 5 nM | ≤ 5 nM |
